In patent publication US20100120732A1, “AGENT FOR PREVENTION AND/OR TREATMENT OF SYSTEMIC LUPUS ERYTHEMATOSUS” (KOWA CO., LTD., priority 2007, published 2010):

Assays:
IFN-γ mRNA in the kidney = test: IFN-γ mRNA expression in the kidney of SLE model mice (Real-Time RT-PCR); format: in vivo, NZB/WF1 mice; settings: Drug A 30 mg/kg twice a day, Drug B 3 mg/kg once a day, oral, 10 weeks; for IFN-γ Relative index: kidney mRNA relative to control group = 1.000; for IFN-γ mRNA expression level (%): kidney, female NZB/WF1 mice, control = 100%, mean ± standard error of 10 to 11 mice
Method: (§1) Actions of suppressing the expression of disease-associated genes in the kidney by the administration of 2-benzyl-5-(4-chlorophenyl)-6-[4-(methylthio)phenyl]-2H-pyridazine-3-one (hereinafter referred to as Drug A) and prednisolone (hereinafter referred to as Drug B) in combination and the administration of each drug alone were evaluated by using NZB×NZW (NZB/W)F1 mice widely known as spontaneous SLE models.
(§2) Female NZB/WF1 mice (Japan SLC, Inc.) were used as test animals.
(§3) The bodyweight of 20-week-old NZB/WF1 mice was measured. By using the body weight as an index, the mice were divided into groups through one-parameter-based block randomization so that each group becomes uniform.
(§4) Drug administration was conducted from the day after the grouping to 10 weeks thereafter. To a group for sole administration of Drug A, a dose of 30 mg/kg was orally administered, twice a day, in the morning (9:00 to 11:00) and in the evening (15:30 to 17:30). Further, to a group for sole administration of Drug B, a dose of 3 mg/kg was orally administered, once a day, in the daytime (11:30 to 13:30). On the other hand, to a group for combined administration of Drug A and Drug B, 30 mg/kg of Drug A was orally administered in the morning (9:00 to 11:00) and in the evening (15:30 to 17:30), and 3 mg/kg of Drug B was orally administered in the daytime (11:30 to 13:30).
(§5) 10 weeks after the grouping (at the time of 30 weeks old), the kidney was excised from each individual and horizontally divided into two portions. After that, the kidney was subjected to RNase inactivation treatment that involves immersing the kidney in RNAlater (manufactured by QIAGEN GmbH) at 4° C. for 24 hours. […] The mRNA expression levels of SLE-associated genes (IFN-y (probe No.: Mm00801778_m1), TNF-α (probe No.: Mm00443258_m1), IL-1β (probe No.: Mm00434228_m1), BAFF (probe No.: Mm00446347_m1), IFIT1 (probe No.: Mm00515153_m1), and IP-10 (probe No.: Mm00445235_m1)) were determined by using ABI PRISM (registered trademark) 7900 Sequence Detection System (manufactured by Applied Biosystems, Inc.) and TaqMan (registered trademark) Gene Expression Assays (manufactured by Applied Biosystems, Inc.) by Real-Time RT-PCR method. […]
(§6) Tables 1 to 6 and FIGS. 1 to 6 each show the mRNA expression levels of IFN-γ (Table 1, FIG. 1), TNF-α (Table 2, FIG. 2), IL-1β (Table 3, FIG. 3), BAFF (Table 4, FIG. 4), IFIT1 (Table 5, FIG. 5), and IP-10 (Table 6, FIG. 6) in the kidney in a control group, a group for sole administration of 30 mg/kg of Drug A, a group for sole administration of 3 mg/kg of Drug B, and a group for combined administration of both Drugs. […] The mRNA expression level is expressed as mean±standard error of 10 to 11 mice in each group. […]

TNF-α mRNA in the kidney = test: TNF-α mRNA expression in the kidney of SLE model mice (Real-Time RT-PCR); format: in vivo, NZB/WF1 mice; settings: Drug A 30 mg/kg twice a day, Drug B 3 mg/kg once a day, oral, 10 weeks; for TNF-α Relative index: kidney mRNA relative to control group = 1.000; for TNF-α mRNA expression level (%): kidney, female NZB/WF1 mice, control = 100%, mean ± standard error of 10 to 11 mice
Method: as §1, §2, §3, §4, §5, §6

IL-1β mRNA in the kidney = test: IL-1β mRNA expression in the kidney of SLE model mice (Real-Time RT-PCR); format: in vivo, NZB/WF1 mice; settings: Drug A 30 mg/kg twice a day, Drug B 3 mg/kg once a day, oral, 10 weeks; for IL-1β Relative index: kidney mRNA relative to control group = 1.000; for IL-1β mRNA expression level (%): kidney, female NZB/WF1 mice, control = 100%, mean ± standard error of 10 to 11 mice
Method: as §1, §2, §3, §4, §5, §6

BAFF mRNA in the kidney = test: BAFF mRNA expression in the kidney of SLE model mice (Real-Time RT-PCR); format: in vivo, NZB/WF1 mice; settings: Drug A 30 mg/kg twice a day, Drug B 3 mg/kg once a day, oral, 10 weeks; for BAFF Relative index: kidney mRNA relative to control group = 1.000; for BAFF mRNA expression level (%): kidney, female NZB/WF1 mice, control = 100%, mean ± standard error of 10 to 11 mice
Method: as §1, §2, §3, §4, §5, §6

IFIT1 mRNA in the kidney = test: IFIT1 mRNA expression in the kidney of SLE model mice (Real-Time RT-PCR); format: in vivo, NZB/WF1 mice; settings: Drug A 30 mg/kg twice a day, Drug B 3 mg/kg once a day, oral, 10 weeks; for IFIT1 Relative index: kidney mRNA relative to control group = 1.000; for IFIT1 mRNA expression level (%): kidney, female NZB/WF1 mice, control = 100%, mean ± standard error of 10 to 11 mice
Method: as §1, §2, §3, §4, §5, §6

IP-10 mRNA in the kidney = test: IP-10 mRNA expression in the kidney of SLE model mice (Real-Time RT-PCR); format: in vivo, NZB/WF1 mice; settings: Drug A 30 mg/kg twice a day, Drug B 3 mg/kg once a day, oral, 10 weeks; for IP-10 Relative index: kidney mRNA relative to control group = 1.000; for IP-10 mRNA expression level (%): kidney, female NZB/WF1 mice, control = 100%, mean ± standard error of 10 to 11 mice
Method: as §1, §2, §3, §4, §5, §6

[1] = system: SLE-associated genes in the kidney; test: Expression of SLE-associated genes in the kidney of SLE model mice, overall statement; format: in vivo; settings: NZB/WF1 mice, oral, 10 weeks, Drug A 30 mg/kg twice a day, Drug B 3 mg/kg once a day, Dunnett's test vs control
Method: as §1, §2, §3, §4
as §5, with “portions.” for “portions. After that, the kidney was subjected to RNase inactivation treatment that involves immersing the kidney in RNAlater (manufactured by QIAGEN GmbH) at 4° C. for 24 hours.”

SMILES	IFN-γ Relative index (IFN-γ mRNA in the kidney)	IFN-γ mRNA expression level (%) (IFN-γ mRNA in the kidney)	TNF-α Relative index (TNF-α mRNA in the kidney)	TNF-α mRNA expression level (%) (TNF-α mRNA in the kidney)	IL-1β Relative index (IL-1β mRNA in the kidney)	IL-1β mRNA expression level (%) (IL-1β mRNA in the kidney)	BAFF Relative index (BAFF mRNA in the kidney)	BAFF mRNA expression level (%) (BAFF mRNA in the kidney)	IFIT1 Relative index (IFIT1 mRNA in the kidney)	IFIT1 mRNA expression level (%) (IFIT1 mRNA in the kidney)	IP-10 Relative index (IP-10 mRNA in the kidney)	IP-10 mRNA expression level (%) (IP-10 mRNA in the kidney)	action on the expression of SLE-associated genes in the kidney (in words) [1]	action on the expression of SLE-associated genes in the kidney (in words) ([1]; listed as 2-benzyl-5-(4-chlorophenyl)-6-[4-(methylthio)phenyl]-2H-pyridazine-3-one)
CSc1ccc(-c2nn(Cc3ccccc3)c(=O)cc2-c2ccc(Cl)cc2)cc1 [Drug A, 2-benzyl-5-(4-chlorophenyl)-6-[4-(methylthio)phenyl]-2H-pyridazine-3-one]	0.857	85.7 ± 27.1	0.634	63.4 ± 13.5	1.266	126.6 ± 50.3	1.135	113.5 ± 13.7	0.721	72.1 ± 15.6	0.883	88.3 ± 18.1	exhibited no action on the expression of SLE-associated genes in the kidney of this model or exhibited only a tendency to slightly suppress the expression	there was not confirmed a significant action of suppressing the expression of SLE-associated genes in the kidney
C[C@]12C=CC(=O)C=C1CC[C@@H]1[C@@H]2[C@@H](O)C[C@@]2(C)[C@H]1CC[C@]2(O)C(=O)CO [Drug B, prednisolone, reference compound]	0.360	36.0 ± 13.1	0.522	52.2 ± 13.2	0.661	66.1 ± 21.9	0.722	72.2 ± 13.1	0.786	78.6 ± 15.0	0.635	63.5 ± 9.9	exhibited a tendency to suppress the expression of any gene	
